# Experimental data as given in patent US20060069123A1, “Substituted dipiperidine CCR2 antagonists” (priority 2004, published 2006).
# Where two headings read alike, the source gives them in different places.
# Tests used:
# BALB/c female mice = experiment: Mouse Model of Allergic Asthma; type: in vivo; details: 100 mg/kg ip
# Source text: Mouse Model of Allergic Asthma: An allergic asthma model in mice was used to test compounds of the invention for therapeutic effect on asthmatic response as a function of airway inflammation and hyperresponsiveness ([…], et al., J. Phar. Exp. Ther., 2000, 295: 912-926). Airway hyperresponsiveness in asthmatic patients is a cardinal feature of allergic asthma and is maintained as a result of persistent airway inflammation. Eosinophils are the prominent cells involved in airway inflammation and are found in large numbers in sputum and bronchoalveolar lavage fluids. Airway responsiveness was measured in unrestrained mice by noninvasive whole body plethysmography using a BioSystem plethysmography instrument (BUXCO, Troy, N.Y.). Each animal was individually placed in the plethysmography instrument chamber and chamber pressure was used as a measure of the difference between thoracic volume expansion or contraction and air volume removed or added to the chamber during breathing. The differential of this function with respect to time produced a pseudo flow value that was proportionate to the difference between the rate of the thoracic volume expansion and nasal air flow (Hamelmann, et al., J. Respir. Crit. Care Med., 1997, 156: 766-775). Three treatment groups of BALB/c female mice (6-8 weeks old) were tested in the 32 day study: • Group 1: vehicle control phosphate buffered saline (PBS)-sensitized and PBS-challenged mice; • Group 2: positive control ovalbumin (OVA)-sensitized and OVA-challenged mice; and, • Group 3: OVA-sensitized and OVA-challenged mice treated with Compound 13. […] • Group 1 mice were sensitized by injection (ip) with PBS; and, • Group 2 mice were OVA sensitized by injection (ip) with OVA (20 μg) dissolved in PBS adsorbed on 2.25 mg alum. […] Day 32: The three treatment groups were challenged via airway by means of methacholine inhalation and asthmatic response was measured as a function of airway hyper-responsiveness. A baseline reading over a 5 min period for each of the mice in the three treatment groups was taken in the plethysmography instrument, then the baseline readings were averaged. • Group 1 mice were nebulized with saline at increasing doses (1-30 mg/ml) over a 2 min period. • Group 2 (first subset) and Group 3 mice were nebulized with methacholine at increasing doses (1-30 mg/ml) over a 2 min period. Post-Challenge Phase A 5 min post-challenge reading for each of the mice was taken and the readings were averaged. Reduction in airway hyperresponsiveness was calculated according to the following formula: [formula] Airway inflammation was measured by eosinophil cell count in bronchoalveolar saline lavage samples (1 mL) of the mice from the three groups. […] The number of eosinophils was counted and the cell concentration adjusted to 0.1×10^6/mL.
# THP-1 cells [1] = experiment: MCP-1 Induced Chemotaxis in THP-1 Cells; type: cell-based; details: Homo sapiens, THP-1, 3 h, read-out: Inhibition of MCP-1 Induced Chemotaxis IC50
# Lewis rats [2] = experiment: Adjuvant-Induced Arthritis Model (Therapeutic Dosing from Day 12-16); type: in vivo; details: ip, bid, 100 mg/kg, days 12-16
# Source text: Adjuvant-Induced Arthritis Model (Therapeutic Dosing from Day 12-16)
# DBA1 mice = details: 100 mg/kg ip, bid, day 20 to day 35, in either vehicle
# Procedure: Collagen-Induced Arthritis Model
# In a collagen-induced arthritis model in mice, DBA1 mice were immunized with bovine type II collagen on day 0, injected (sc) with lipopolysaccharide (LPS) on day 21, and dosed (ip, bid) with a test compound at either 25, 50 or 100 mg/kg from day 20 to day 35. Body weight was monitored, and clinical disease score recorded every 2-3 days starting on day 20.
# Test compound was dosed in one of two vehicles:
# • 1) 10% Pharmasolve:20% PEG-400:70% of a 1% solution of Tween-80 in water; or, • 2) 30% PEG400:20% Solutol:50% of a 0.1 N solution of NaHCO3.
# THP-1 cells [3] = details: Homo sapiens, THP-1, read-out: Inhibition of MCP-1 Induced Calcium Ion Influx IC50
# Lewis rats [4] = details: ip, bid, 100 mg/kg, days 0-14
# [5] = OVA-sensitized and OVA-challenged mice
Compound,"Airway Hyperresponsiveness (whole body plethysmography reading) (BALB/c female mice; Group 3: OVA-sensitized and OVA-challenged mice, methacholine challenge day 32, n=4)","Eosinophil Infiltration (eosinophil cell count in bronchoalveolar lavage) (BALB/c female mice; Group 3: OVA-sensitized and OVA-challenged mice, n=3)",reduction in airway hyperresponsiveness compared to the non-treated mice (BALB/c female mice; [5]),reduction in airway inflammation compared to the non-treated mice (BALB/c female mice; [5]),IC50 (THP-1 cells [1]),decreased swelling in the injected paw (Lewis rats [2]),inhibited contralateral paw swelling (Lewis rats [2]),inhibited the development of arthritis (clinical disease score on day 35) (DBA1 mice),IC50 (THP-1 cells [3]),decrease in swelling in the injected paws (Lewis rats [4]),swelling of the contralateral paws (Lewis rats [4])
"O=C(O)[C@H](C1CCN(C(=O)/C=C/c2cc(F)c(F)c(F)c2)CC1)N1CCC(c2c[nH]c3ccccc23)CC1 [Cpd 13, (S)-{[4-(1H-indol-3-yl)-piperidin-1-yl]}-{1-[(2E)-3-(3,4,5-trifluoro-phenyl)-acryloyl]-piperidin-4-yl}-acetic acid]",1147±49,0.2±0.1 ×10^5/ml,~36%,75%,,,,,,,
"O=C(O)C(C1CCN(C(=O)/C=C/c2cc(F)c(F)c(F)c2)CC1)N1CCC(c2c[nH]c3ccccc23)CC1 (centres unmarked) [Cpd 6, [4-(1H-indol-3-yl)-piperidin-1-yl]-{1-[(2E)-3-(3,4,5-trifluoro-phenyl)-acryloyl]-piperidin-4-yl}-acetic acid]",,,,,8 nM,40%,51%,greater than 90%,5 nM,40%,insignificant swelling
